Results reported in paper PMC6196238, “Novobiocin, a Newly Found TRPV1 Inhibitor, Attenuates the Expression of TRPV1 in Rat Intestine and Intestinal Epithelial Cell Line IEC-6” (Frontiers in Pharmacology, 2018).

System: rat intestine (jejunum, ileum, colon)
Assay: Ussing chamber intestinal permeability of NOVO
Format: in vitro ADME
Details: jejunum vs ileum and colon; Figure 1
Description: The intestinal permeability of CAP in vitro was performed using Ussing chamber. […] NOVO was also prepared in HEPES buffer to yield final concentration at 5, 10, 25, 50, 100, and 200 μM. Animal intestinal segments for the permeability study were prepared in accordance with the experimental method as described previously ([Yodoya et al., 1994]; [Wallon et al., 2005]; [Duan et al., 2013]). Briefly, male SD rats, weighting 240–260 g, were fasted for 18 h before each experiment and anesthetized by injecting 10 % chloral hydrate anesthesia (i.p.). Different portions of the rat intestine were excised and flushed with HEPES buffer, including jejunum (after the first 5 cm of the top of small intestine), ileum (the distal part of small intestine) and colon (proximal to cecal-colonic junction), and incubated in the ice-cold HEPES buffer. Next, 3–4 cm of the intestine was clipped, and the serosa was removed rapidly on an ice-cold glass. The intestinal segments were fixed in the Ussing chamber. Finally, 7 mL of HEPES buffer was added to the receiving side while an equal volume of drug solution to the dosing side. All the chambers were maintained at 37°C by using a warm water-circulating pump and a mixture of 95% O2 and 5% CO2 aerated to ensure the activity of the membrane. […]

SMILES: CO[C@@H]1[C@@H](OC(N)=O)[C@@H](O)[C@H](Oc2ccc3c(O)c(NC(=O)c4ccc(O)c(CC=C(C)C)c4)c(=O)oc3c2C)OC1(C)C [NOVO, novobiocin]
- permeability of NOVO across intestinal segments: much greater in the jejunum than in the ileum and colon
